Assays:
DM331 xenografts = assay: Melanoma flank xenograft in nude mice; format: in vivo; conditions: vs. vehicle; PLX4720 in rodent diet 417 mg/kg
Procedure: (§1) All animal experiments were performed after approval of animal protocols by the Animal Care and Use Committee (ACUC) of the University of Virginia. Animals were housed and handled in accordance with the guidelines of the ACUC of the University of Virginia. The effect of pevonedistat on melanoma growth was tested in flank xenograft models. Foxn1^nu (20-25 g body weight, 4-5 weeks old females) athymic nude immune-deficient mice (Harlan Laboratories, now Envigo, Indianapolis, Ind., United States of America) were used in this study. Pevonedistat was dissolved in sterile 10% DMSO containing PBS (stock 1 mM), filtered, and stored in −20° C. until use. DM93, VMM39, SLM2, DM331, or SK-MEL-24 (2×10^6) melanoma cells were implanted in both flanks of immune-deficient mice (n=12 mice per group) and tumor growth was monitored until they grow to an average volume of 150-200 mm^3, and mice were randomized into groups for treatment. Animals were administered 0.2 mL pevonedistat solution (30 or 60 mg/kg body weight as indicated) intraperitoneally on a schedule of two cycles of five-day treatment followed by five treatment-free days, for 3 weeks, or more as indicated. Control animals were treated with an equal volume of sterile vehicle (10% DMSO in PBS). Where indicated, mice received control rodent diet, or rodent diet with 417 mg/kg PLX4720 (Research Diets, Inc. New Brunswick, N.J., United States of America). Tumors were measured with an electronic caliper every other day for 3 weeks post-drug injection. Animal weight was recorded once a week to detect any weight loss due to the toxicity of drug treatment or tumor burden. At the end of the treatment, animals were euthanized and tumors harvested for further processing. The results shown are mean tumor volumes±s.e.m; *p<0.05, **p<0.01, ***p<0.001.

DM93 melanoma xenografts = assay: Melanoma flank xenograft in nude mice; format: in vivo
Procedure: as §1

SLM2 xenografts = assay: Melanoma flank xenograft in nude mice; format: in vivo; conditions: 60 mg/kg; p=2.3×10^−3
Procedure: as §1

VMM39 xenografts = assay: Melanoma flank xenograft in nude mice; format: in vivo; conditions: 60 mg/kg; p=1.8×10^−5
Procedure: as §1

[1] = system: DM331 and SK-MEL-24 cells from PLX4720-resistant tumors; assay: In vitro sensitivity of cells extracted ex vivo from PLX4720-resistant tumors; format: cell-based, human; conditions: DM331 and SK-MEL-24 cells extracted ex vivo
Procedure: Proliferation and viability of cultured cells was measured by CELLTITER96® Non-radioactive Cell Proliferation Assay (Promega Corporation; Madison, Wis., United States of America). Briefly, various wild type and mutant BRAF melanoma cells were seeded in 96 well plates and treated with pevonedistat, vemurafenib, or the combination pevonedistat and vemurafenib at various concentrations. Control cells were treated with DMSO. 96 hours following treatment, cells were stained with the dye solution according to the manufacturer's protocol. Absorbance was recorded at 570 nm and growth curves were established. […] Cells were counted every 24 hours using a COUNTESS™ Automated Cell Counter (INVITROGEN™, Carlsbad, Calif., United States of America), and harvested at the indicated times for PI staining and FACS analysis (cell cycle profile) or for immunoblotting.
The effects of pevonedistat, vemurafenib, and/or silencing of various cell cycle-associated proteins by siRNA on cell cycle distribution and rereplication were assessed by propidium iodide staining and flow cytometry of asynchronous melanoma cultures. […]

[2] = system: hTERT-transformed keratonocytes (OKF6-TERT2); assay: Rereplication by FACS in control keratinocytes; format: cell-based, human
Procedure: The effect of pevonedistat treatment or CDT2, geminin, or EMI1 knockdown on the cell cycle (and induction of DNA rereplication) was assessed by flow cytometry with propidium iodide (PI) staining. Cells were harvested at 72 or 96 hours post-treatment with pevonedistat or post-transfection, respectively. Cells were collected, washed with PBS, and resuspended in ethanol (75%). Cells were subsequently treated with 20 μg of DNase-free RNase and stained with PI following the manufacturer's protocol. FACSCAN™ (Becton, Dickinson and Company, Franklin Lakes, N.J., United States of America) was used to analyze the samples and G0-G1, S, and G2-M fractions were segmented. Subsequent analysis using FLOWJO® (FLOWJO, LLC, Ashland, Oreg., United States of America) and ModFit (Verity Software House, Topsham, Me., United States of America) software was used to determine apoptotic and re-replicating fractions. Where indicated, Cal27 and FaDu cells were treated with pevonedistat for 48 hours and pulsed with BrdU (10 nM) for 1 hour in the dark prior to harvesting. […] Sampled were analyzed on a FACSCAN™ (Becton, Dickinson and Company, Franklin Lakes, N.J., United States of America), and different fractions of BrdU positive cells were determined using FLOWJO® (FLOWJO, LLC, Ashland, Oreg., United States of America) and ModFit (Verity Software House, Topsham, Me., United States of America) software.

NS(=O)(=O)OCC1CC(n2ccc3c(NC4CCc5ccccc54)ncnc32)CC1O [pevonedistat, ((1S,2S,4R)-4-(4-((1S)-2,3-Dihydro-H-inden-1-ylamino)-7H-pyrrolo(2,3-d)pyrimidin-7-yl)-2-hydroxycyclopentyl)methyl sulphamate]
growth of DM331 xenografts (DM331 xenografts): inhibited
growth of sg-control DM93 xenografts (DM93 melanoma xenografts; 30 mg/kg, p=0.009): significantly inhibited the growth
growth of sg-p21-1 DM93 xenografts (DM93 melanoma xenografts; 30 mg/kg, p=0.092): failed to inhibit the growth
growth of sg-SET8-1 DM93 xenografts (DM93 melanoma xenografts; 30 mg/kg, p=0.66): failed to inhibit the growth
tumor regression (DM93 melanoma xenografts; 30 or 60 mg/kg): did not result in tumor regression
tumor regrowth after cessation of treatment (DM93 melanoma xenografts; either drug concentration, up to 10 days following cessation): not detectable
tolerability (DM93 melanoma xenografts; nude mice, 30 or 60 mg/kg, 5 days on/5 days off, two cycles): well tolerated
growth of SLM2 xenografts (SLM2 xenografts): significantly inhibited the growth
growth of VMM39 xenografts (VMM39 xenografts): significantly inhibited the growth
sensitivity in vitro of cells from PLX4720-resistant tumors [1]: sensitive to pevonedistat-induced rereplication and inhibition
DNA rereplication [2]: not observed
